Source: US8293732B2, “Antibacterial quinoline derivatives” (Janssen Pharmaceutica N.V., priority 2006, dated 2012)
Values after ≈ are worked out from the molar mass of the structure shown.

Columns and labels:
Type in all cases: cell-based
[1] = system: M. Smegmatis (ATCC607); experiment: In-vitro anti-bacterial activity against strain M. Smegmatis ATCC607; conditions: 90% inhibitory concentration for bacterial growth, 37° C., Alamar Blue fluorescence; for IC90: Mycolicibacterium smegmatis, ATCC607, 48 h, read-out: IC90 values MSM 1 ATCC607; for IC90 values MSM 1 ATCC607: 48 hours
Description: Flat-bottom, sterile 96-well plastic microtiter plates were filled with 180 μl of sterile deionized water, supplemented with 0.25% BSA. Subsequently, stock solutions (7.8× final test concentration) of compounds were added in 45 μl volumes to a series of duplicate wells in column 2 so as to allow evaluation of their effects on bacterial growth. Serial five-fold dilutions (45 μl in 180 μl) were made directly in the microtiter plates from column 2 to 11 using a customised robot system (Zymark Corp., Hopkinton, Mass.). Pipette tips were changed after every 3 dilutions to minimize pipetting errors with high hydrophobic compounds. Untreated control samples with (column 1) and without (column 12) inoculum were included in each microtiter plate. Approximately 250 CFU per well of bacteria inoculum, in a volume of 100 μl in 2.8× Mueller-Hinton broth medium, was added to the rows A to H, except column 12. The same volume of broth medium without inoculum was added to column 12 in row A to H. The cultures were incubated at 37° C. for 48 hours in a humidified 5% CO2 atmosphere (incubator with open air valve and continuous ventilation). At the end of incubation, two days after inoculation, the bacterial growth was quantitated fluorometrically. Therefore Alamar Blue (10×) was added to all wells in a volume of 20 μl and plates were incubated for another 2 hours at […]
The fluorescence was read in a computer-controlled fluorometer (Cytofluor, Biosearch) at an excitation wavelength of 530 nm and an emission wavelength of 590 nm (gain 30).
(§1) STA 29213 means Staphylococcus aureus (ATCC29213); SPN 6305 means Streptococcus pneumoniae (ATCC6305); MSM 607 means M. Smegmatis (ATCC607); ATCC means […].

[2] = system: Staphylococcus aureus (ATCC29213); experiment: In-vitro anti-bacterial microtitre plate assay, IC90 determination (STA 1 B29213); conditions: 90% inhibitory concentration for bacterial growth, 37° C., resazurin fluorescence; for IC90: Staphylococcus aureus, ATCC29213, 24 h; for IC90 values STA 1 B29213: 24 hours
Description: (§2) The bacteria used in this study were grown overnight in flasks containing 100 ml Mueller-Hinton Broth (Becton Dickinson—cat. no. 275730) in sterile de-ionized water, with shaking, at 37° C. Stocks (0.5 ml/tube) were stored at −70° C. until use. Bacteria titrations were performed in microtiter plates to detect the TCID50, in which the TCID50 represents the dilution that gives rise to bacterial growth in 50% of inoculated cultures.
(§3) In general, an inoculum level of approximately 100 TCID50 was used for susceptibility testing.
(§4) Flat-bottom, sterile 96-well plastic microtiter plates were filled with 180 μl of sterile deionized water, supplemented with 0.25% BSA. Subsequently, stock solutions (7.8× final test concentration) of compounds were added in 45 μl volumes in column 2. Serial five-fold dilutions (45 μl in 180 μl) were made directly in the microtiter plates from column 2 to reach column 11. Untreated control samples with (column 1) and without (column 12) inoculum were included in each microtiter plate. Depending on the bacteria type, approximately 10 to 60 CFU per well of bacteria inoculum (100 TCID50), in a volume of 100 μl in 2.8× Mueller-Hinton broth medium, was added to the rows A to H, except column 12. The same volume of broth medium without inoculum was added to column 12 in row A to H. The cultures were incubated at 37° C. for 24 hours under a normal atmosphere (incubator with open air valve and continuous ventilation). At the end of incubation, one day after inoculation, the bacterial growth was quantitated fluorometrically. Therefore resazurin (0.6 mg/ml) was added in a volume of 20 μl to all wells 3 hours after inoculation, and the plates were re-incubated overnight. A change in colour from blue to pink indicated the growth of bacteria. The fluorescence was read in a computer-controlled fluorometer (Cytofluor Biosearch) at an excitation wavelength of 530 nm and an emission wavelength of 590 nm. The % growth inhibition achieved by the compounds was calculated according to standard methods.
as §1

[3] = system: Streptococcus pneumoniae (ATCC6305); experiment: In-vitro anti-bacterial microtitre plate assay, IC90 determination (SPN 1 6305); conditions: 90% inhibitory concentration for bacterial growth, 37° C., resazurin fluorescence; for IC90 values SPN 1 6305: 24 hours
Description: as §2, §3, §4, §1

Structure (SMILES)	IC90 [2]	IC90 ([3]; Streptococcus pneumoniae, ATCC6305, 24 h)	IC90 values STA 1 B29213 [2]	IC90 values SPN 1 6305 [3]	IC90 [1]	IC90 values MSM 1 ATCC607 [1]
COc1nc2ccccc2cc1C(c1ccc(-c2cccnc2)cc1)C(O)(CCCCN(C)C)c1ccc2ccccc2c1 (single isomer, unassigned) [Compound 7]	1.8 µg/mL (≈ 3.09 µM)	1.8 µg/mL (≈ 3.09 µM)			1.8 µg/mL (≈ 3.09 µM)	
COc1nc2ccc(Br)cc2cc1C(c1ccccc1)C(O)(CCCCCN(C)C)c1cccc(-c2ccccc2)c1 (single isomer, unassigned) [Compound 35]	1.97 µg/mL (≈ 3.16 µM)				1.76 µg/mL (≈ 2.82 µM)	
COc1ccc(-c2cccc(C(O)(CCCCN(C)C)C(c3ccccc3)c3cc4cc(Br)ccc4nc3OC)c2)cc1 (single isomer, unassigned) [Compound 39]			2.02 µg/mL (≈ 3.16 µM)	2.02 µg/mL (≈ 3.16 µM)		2.02 µg/mL (≈ 3.16 µM)
COc1nc2ccc(Br)cc2cc1C(c1ccccc1)C(O)(CCCCN(C)C)c1cccc(/C=C/c2ccccc2)c1 (stereo not drawn) [Compound 44]	1.79 µg/mL (≈ 2.82 µM)					0.90 µg/mL (≈ 1.42 µM)
COc1nc2ccc(Br)cc2cc1C(c1ccccc1)C(O)(CCCCN(C)C)c1cccc(/C=C/c2ccccc2)c1 (stereo not drawn) [Compound 46]			2.01 µg/mL (≈ 3.16 µM)			2.01 µg/mL (≈ 3.16 µM)
COc1nc2ccc(Br)cc2cc1C(c1ccccc1)C(O)(CCCCN(C)C)c1cccc(-c2ccc(C)cc2)c1 (single isomer, unassigned) [Compound 42]			2.21 µg/mL (≈ 3.54 µM)			0.79 µg/mL (≈ 1.27 µM)
COc1nc2ccc(Br)cc2cc1C(c1ccccc1)C(O)(CCCCN(C)C)c1cccc(/C=C/c2ccccc2)c1 (stereo not drawn) [Compound 45]			2.01 µg/mL (≈ 3.16 µM)			2.01 µg/mL (≈ 3.16 µM)
COc1nc2ccccc2cc1C(c1ccc(-c2cccs2)cc1)C(O)(CCCCN(C)C)c1ccc2ccccc2c1 (single isomer, unassigned) [Compound 15]			1.9 µg/mL (≈ 3.24 µM)	2.3 µg/mL (≈ 3.92 µM)		
COc1nc2ccc(Br)cc2cc1C(c1ccccc1)C(O)(CCCCCN(C)C)c1cccc(-c2ccccc2)c1 (single isomer, unassigned) [Compound 36]			1.97 µg/mL (≈ 3.16 µM)			1.76 µg/mL (≈ 2.82 µM)
COc1nc2ccccc2cc1C(c1ccc(-c2ccncc2)cc1)C(O)(CCCCN(C)C)c1ccc2ccccc2c1 (single isomer, unassigned) [Compound 43]			4.60 µg/mL (≈ 7.91 µM)			0.37 µg/mL (≈ 0.636 µM)
COc1nc2ccc(Br)cc2cc1C(c1ccccc1)C(O)(CCCCCN(C)C)c1cccc(/C=C/c2ccccc2)c1 (single isomer, unassigned) [Compound 37]	2.05 µg/mL (≈ 3.16 µM)				1.63 µg/mL (≈ 2.51 µM)	

Continued, in another order:

IC90 [2]	IC90 ([3]; Streptococcus pneumoniae, ATCC6305, 24 h)	IC90 values STA 1 B29213 [2]	IC90 values SPN 1 6305 [3]	Structure (SMILES)	IC90 [1]	IC90 values MSM 1 ATCC607 [1]
		8.58 µg/mL (≈ 15.8 µM)		COc1nc2ccc(Br)cc2cc1C(c1ccoc1)C(O)(CCc1ccc(F)cc1)CCN(C)C (single isomer, unassigned) [Compound 54]		1.92 µg/mL (≈ 3.55 µM)
		25.15 µg/mL (≈ 39.8 µM)		COc1nc2ccccc2cc1C(c1ccc(-c2cnc3ccccc3c2)cc1)C(O)(CCCCN(C)C)c1ccc2ccccc2c1 (single isomer, unassigned) [Compound 50]		22.42 µg/mL (≈ 35.5 µM)
		2.01 µg/mL (≈ 3.16 µM)		COc1nc2ccc(Br)cc2cc1C(c1ccccc1)C(O)(CCCCN(C)C)c1cccc(/C=C/c2ccccc2)c1 (stereo not drawn) [Compound 47]		2.01 µg/mL (≈ 3.16 µM)
		49.54 µg/mL (≈ 100 µM)		COc1nc2ccc(Br)cc2cc1C(c1ccoc1)C(O)(CCN(C)C)c1ccccc1 (single isomer, unassigned) [Compound 52]		0.06 µg/mL (≈ 0.121 µM)
39.4 µg/mL (≈ 79.4 µM)				COc1nc2ccc(Br)cc2cc1C(c1ccoc1)C(O)(CCN(C)C)c1ccccc1 (single isomer, unassigned) [Compound 51]		1.57 µg/mL (≈ 3.17 µM)
		2.00 µg/mL (≈ 3.17 µM)		COc1nc2ccccc2cc1C(c1ccc(-c2cnc3ccccc3c2)cc1)C(O)(CCCCN(C)C)c1ccc2ccccc2c1 (single isomer, unassigned) [Compound 49]		2.00 µg/mL (≈ 3.17 µM)
